One assay addresses T1, DCAMKL1 (Homo sapiens, UniProt O15075).
T1 construct: purchased DiscoveRx (Fremont, CA), KinomeScan service
In words: KinomeScan. As to conditions: read-out: % Control. In kind it is binding.

The target in a further assay is T2, C3aR (Homo sapiens, UniProt Q16581).
T2 construct: host or cells: Chem-1 cells with promiscuous Gα15
Kind of assay: GPCR Profiler. Type of assay: cell-based.

Another assay deals with T3, CDK7 (Homo sapiens, UniProt P50613).
T3 construct: purchased DiscoveRx (KinomeScan service)
Kind of assay: KinomeScan. Type of assay: binding. Conditions: read-out: % Control.

The target of the next assay is T4, MAK (Homo sapiens, UniProt P20794).
T4 construct: purchased DiscoveRx
Kind of assay: KinomeScan. Conditions: read-out: % Control. In kind it is binding.

The target of another assay is T5, P2Y11 (Homo sapiens, UniProt Q96G91).
T5 construct: host or cells: Chem-1 cells expressing Gα15
T5 sequence (Q96G91 whole entry, species assumed): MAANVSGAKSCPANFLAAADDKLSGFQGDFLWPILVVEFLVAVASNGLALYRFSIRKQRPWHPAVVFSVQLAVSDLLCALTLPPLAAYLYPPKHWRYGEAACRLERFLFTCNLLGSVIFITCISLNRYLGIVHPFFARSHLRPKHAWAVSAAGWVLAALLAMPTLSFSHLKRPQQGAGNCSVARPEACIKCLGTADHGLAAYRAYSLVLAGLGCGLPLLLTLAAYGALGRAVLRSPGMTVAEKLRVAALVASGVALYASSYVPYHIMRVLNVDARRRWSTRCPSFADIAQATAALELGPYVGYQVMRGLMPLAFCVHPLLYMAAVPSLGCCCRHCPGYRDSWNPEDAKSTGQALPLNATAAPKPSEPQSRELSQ
Kind of assay: GPCR Profiler. In kind it is cell-based.

The next assay concerns the target T6, ADCK3 (Homo sapiens, UniProt Q8NI60).
T6 construct: purchased DiscoveRx (Fremont, CA)
Kind of assay: KinomeScan. Type of assay: binding. Conditions: read-out: % Control.

A further assay addresses T7, MET(Y1235D) (Homo sapiens, UniProt P08581, Y1235D).
T7 construct: purchased DiscoveRx
In words: KinomeScan. In kind it is binding. Conditions: read-out: % Control.

The target in a further assay is CLK2 (Homo sapiens, UniProt P49760). In words: KinomeScan. In kind it is binding. Conditions: read-out: % Control.
Another assay concerns the target T8, AXL (Homo sapiens, UniProt P30530).
T8 construct: purchased DiscoveRx (Fremont, CA)
Kind of assay: KinomeScan. As to conditions: read-out: % Control. Type of assay: binding.

For a further assay, the target named is T9, ADRA2A (Homo sapiens, UniProt P08913).
T9 construct: host or cells: Chem-1 cells with promiscuous Gα15
T9 sequence (P08913 whole entry, species assumed): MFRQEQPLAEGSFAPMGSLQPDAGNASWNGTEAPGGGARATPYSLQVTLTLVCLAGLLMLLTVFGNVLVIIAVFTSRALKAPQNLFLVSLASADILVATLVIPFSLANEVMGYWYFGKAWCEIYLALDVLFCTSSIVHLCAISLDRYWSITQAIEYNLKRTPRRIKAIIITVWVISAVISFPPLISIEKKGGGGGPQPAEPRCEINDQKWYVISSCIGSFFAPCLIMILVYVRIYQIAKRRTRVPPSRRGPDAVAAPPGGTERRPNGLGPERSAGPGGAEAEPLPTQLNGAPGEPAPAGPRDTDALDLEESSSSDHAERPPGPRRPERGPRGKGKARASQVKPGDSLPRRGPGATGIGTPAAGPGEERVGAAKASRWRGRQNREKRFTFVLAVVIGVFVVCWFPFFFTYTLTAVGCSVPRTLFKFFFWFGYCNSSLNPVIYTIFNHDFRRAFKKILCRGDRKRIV
Kind of assay: GPCR Profiler. In kind it is cell-based.

The target of another assay is T10, SRPK3 (Homo sapiens, UniProt Q9UPE1).
T10 construct: purchased DiscoveRx (Fremont, CA)
Kind of assay: KinomeScan. As to conditions: read-out: % Control. Type of assay: binding.

The next assay has as its target T11, VRK2 (Homo sapiens, UniProt Q86Y07).
T11 construct: purchased DiscoveRx
In words: KinomeScan. In kind it is binding. Conditions: read-out: % Control.

The target of the next assay is T12, 5-HT1A (Homo sapiens, UniProt P08908).
T12 construct: host or cells: Chem-1 cells with promiscuous Gα15
T12 sequence (P08908 whole entry): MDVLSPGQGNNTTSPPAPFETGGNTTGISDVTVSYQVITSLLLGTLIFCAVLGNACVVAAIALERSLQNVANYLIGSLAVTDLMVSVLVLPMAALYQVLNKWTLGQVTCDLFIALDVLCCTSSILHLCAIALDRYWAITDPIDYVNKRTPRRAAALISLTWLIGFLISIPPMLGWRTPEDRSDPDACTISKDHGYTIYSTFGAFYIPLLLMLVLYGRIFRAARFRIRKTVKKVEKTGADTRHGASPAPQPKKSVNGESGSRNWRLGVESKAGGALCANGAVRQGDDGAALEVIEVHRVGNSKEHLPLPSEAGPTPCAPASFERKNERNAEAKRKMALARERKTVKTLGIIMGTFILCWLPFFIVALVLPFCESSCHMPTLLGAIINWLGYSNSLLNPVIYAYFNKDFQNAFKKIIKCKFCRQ
In words: GPCR Profiler. Type of assay: cell-based.

The target in another assay is T13, EGFR(L861Q) (Homo sapiens, UniProt P00533, L861Q).
T13 construct: purchased DiscoveRx (Fremont, CA), KinomeScan service
In words: KinomeScan. In kind it is binding. Conditions: read-out: % Control.

Another assay addresses CSNK1D (Homo sapiens, UniProt P48730). In words: KinomeScan. In kind it is binding. As to conditions: read-out: % Control.
The target of another assay is T14, M5 (Homo sapiens, UniProt P08912).
T14 construct: host or cells: Chem-1 cells with promiscuous Gα15
T14 sequence (P08912 whole entry): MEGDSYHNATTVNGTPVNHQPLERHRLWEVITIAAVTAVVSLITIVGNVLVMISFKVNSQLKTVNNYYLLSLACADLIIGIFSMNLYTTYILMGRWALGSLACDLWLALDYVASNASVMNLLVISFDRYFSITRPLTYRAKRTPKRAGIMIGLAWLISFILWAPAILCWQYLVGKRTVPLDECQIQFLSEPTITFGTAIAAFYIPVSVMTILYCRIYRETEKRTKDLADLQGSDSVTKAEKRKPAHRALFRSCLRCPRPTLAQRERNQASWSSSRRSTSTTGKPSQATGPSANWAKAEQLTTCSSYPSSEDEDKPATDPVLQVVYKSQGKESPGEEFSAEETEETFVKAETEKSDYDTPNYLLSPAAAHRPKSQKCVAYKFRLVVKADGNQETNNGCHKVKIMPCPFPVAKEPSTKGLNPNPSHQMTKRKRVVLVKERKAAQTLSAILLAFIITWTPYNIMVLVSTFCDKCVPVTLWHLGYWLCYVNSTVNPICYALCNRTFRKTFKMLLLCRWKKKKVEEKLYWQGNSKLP
In words: GPCR Profiler. Type of assay: cell-based.

In another assay the target is T15, ERBB3 (Homo sapiens, UniProt P21860).
T15 construct: purchased DiscoveRx (Fremont, CA)
In words: KinomeScan. In kind it is binding. Conditions: read-out: % Control.

The target in the next assay is T16, MAST1 (Homo sapiens, UniProt Q9Y2H9).
T16 construct: purchased DiscoveRx (Fremont, CA)
In words: KinomeScan. In kind it is binding. As to conditions: read-out: % Control.

For the next assay, the target named is T17, AMPK-alpha1 (Homo sapiens, UniProt Q13131).
T17 construct: purchased DiscoveRx (Fremont, CA)
Kind of assay: KinomeScan. Type of assay: binding. As to conditions: read-out: % Control.

The target in a further assay is T18, PRKX (Homo sapiens, UniProt P51817).
T18 construct: purchased DiscoveRx (Fremont, CA)
T18 sequence (P51817 whole entry): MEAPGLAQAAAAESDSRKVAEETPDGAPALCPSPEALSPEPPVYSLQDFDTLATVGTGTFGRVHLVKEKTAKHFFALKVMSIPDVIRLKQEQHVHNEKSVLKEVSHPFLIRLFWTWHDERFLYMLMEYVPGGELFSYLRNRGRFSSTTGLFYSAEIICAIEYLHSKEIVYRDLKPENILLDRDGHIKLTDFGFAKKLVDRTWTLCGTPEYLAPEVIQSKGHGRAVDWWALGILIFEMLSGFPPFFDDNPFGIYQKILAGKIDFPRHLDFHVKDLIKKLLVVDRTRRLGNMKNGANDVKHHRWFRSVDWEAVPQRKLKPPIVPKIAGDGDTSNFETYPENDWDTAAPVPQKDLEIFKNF
Kind of assay: KinomeScan. As to conditions: read-out: % Control. Type of assay: binding.

Another assay addresses T19, 5-HT6 (Homo sapiens, UniProt P50406).
T19 construct: host or cells: Chem-1 cells with promiscuous Gα15
Kind of assay: GPCR Profiler. Type of assay: cell-based.

A further assay deals with CTK (Homo sapiens, UniProt P42679). In words: KinomeScan. In kind it is binding. As to conditions: read-out: % Control.
The target of a further assay is T20, KIT(V559D) (Homo sapiens, UniProt P10721, V559D).
T20 construct: purchased DiscoveRx
In words: KinomeScan. Type of assay: binding. As to conditions: read-out: % Control.

For another assay, the target named is T21, LYN (Homo sapiens, UniProt P07948).
T21 construct: purchased DiscoveRx
Kind of assay: KinomeScan. Conditions: read-out: % Control. Type of assay: binding.

For another assay, the system named is PDX 08-387 cells. Kind of assay: Cell survival, OGM2 with TMZ. In kind it is cell-based, human. Conditions: OGM2 and TMZ, cell killing. The procedure: GBM neurospheres and low passage PDX models were plated in 96-well plates at 10,000 cells per well in 50 μL of neural stem cell media. The next day, the cells were treated with OGM2 compounds at the indicated concentrations, in triplicates, by adding an equal volume of medium containing 2× the final concentration of compound. Following 72 hours incubation under standard cell culture conditions, relative cell number was assessed using Cell Titer-Glo Luminescent Cell Viability Assay (Promega™) following the manufacturer's instructions. Luminescence was determined using a Cytation 5 reader and Gen5 software package (BioTek™). For U87 and U138 cell lines, one thousand cells were plated per well in a standard 96-well plate and allowed to attach for 24 hours before exposure to concentrations of vehicle, OGM2, or TMZ. Cells were treated for 72 hours and then stained with DAPI. A 10× magnification lens on a LionheartFX (BioTek™) was used to image the wells, and images were stitched together with Gen5 software (BioTek™). Automated nuclei counting was also done using the Gen5 software. Results reported as percent response relative to DMSO control. […]
Where appropriate, ANOVA, or student's T-test were conducted in PRISM. […] For drug interaction and therapeutic interaction, the coefficient of drug interaction (CDI) was calculated as follows: CDI=AB/(A×B). […]

The next assay concerns U87. In words: Clonogenicity (crystal violet). Type of assay: cell-based, human. As to conditions: 12 days. On the procedure:
U87 cells were plated at 400 cells per well in a 6-well plate and on the next day were treated with increasing concentrations of OGM2 for 12 days. The doses were 0 uM (DMSO control) 0.1 μM 0.5 uM, 1 uM, 1.5 uM and 2 uM, as labelled. The plate was fixed with formalin and stained with crystal violet.

Each structure is given as a SMILES string.

T19 sequence (P50406 whole entry, species assumed): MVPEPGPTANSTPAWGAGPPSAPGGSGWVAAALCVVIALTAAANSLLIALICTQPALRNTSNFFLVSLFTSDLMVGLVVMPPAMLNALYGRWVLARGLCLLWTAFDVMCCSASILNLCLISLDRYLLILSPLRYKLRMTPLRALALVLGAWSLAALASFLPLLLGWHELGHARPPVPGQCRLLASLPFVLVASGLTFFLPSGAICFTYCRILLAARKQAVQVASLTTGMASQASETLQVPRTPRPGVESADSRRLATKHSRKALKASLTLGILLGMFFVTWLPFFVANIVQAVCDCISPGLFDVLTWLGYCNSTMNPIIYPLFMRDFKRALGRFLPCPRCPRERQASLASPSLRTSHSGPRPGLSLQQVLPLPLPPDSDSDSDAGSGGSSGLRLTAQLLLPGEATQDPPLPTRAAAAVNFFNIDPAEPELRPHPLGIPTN
T2 sequence (Q16581 whole entry, species assumed): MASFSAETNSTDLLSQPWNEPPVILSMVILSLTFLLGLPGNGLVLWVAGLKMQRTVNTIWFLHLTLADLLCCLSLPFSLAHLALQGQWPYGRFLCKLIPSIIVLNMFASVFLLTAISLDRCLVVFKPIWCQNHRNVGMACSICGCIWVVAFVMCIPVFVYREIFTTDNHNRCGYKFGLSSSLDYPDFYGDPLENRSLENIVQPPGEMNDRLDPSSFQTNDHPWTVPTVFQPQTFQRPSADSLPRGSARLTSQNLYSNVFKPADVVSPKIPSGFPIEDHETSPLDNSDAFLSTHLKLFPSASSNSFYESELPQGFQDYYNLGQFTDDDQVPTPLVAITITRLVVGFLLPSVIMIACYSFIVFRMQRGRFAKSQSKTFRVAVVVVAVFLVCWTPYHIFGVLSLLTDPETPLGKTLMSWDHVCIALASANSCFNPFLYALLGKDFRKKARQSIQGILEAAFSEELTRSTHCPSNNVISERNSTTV
T7 sequence (P08581 25-1390 Y1235D): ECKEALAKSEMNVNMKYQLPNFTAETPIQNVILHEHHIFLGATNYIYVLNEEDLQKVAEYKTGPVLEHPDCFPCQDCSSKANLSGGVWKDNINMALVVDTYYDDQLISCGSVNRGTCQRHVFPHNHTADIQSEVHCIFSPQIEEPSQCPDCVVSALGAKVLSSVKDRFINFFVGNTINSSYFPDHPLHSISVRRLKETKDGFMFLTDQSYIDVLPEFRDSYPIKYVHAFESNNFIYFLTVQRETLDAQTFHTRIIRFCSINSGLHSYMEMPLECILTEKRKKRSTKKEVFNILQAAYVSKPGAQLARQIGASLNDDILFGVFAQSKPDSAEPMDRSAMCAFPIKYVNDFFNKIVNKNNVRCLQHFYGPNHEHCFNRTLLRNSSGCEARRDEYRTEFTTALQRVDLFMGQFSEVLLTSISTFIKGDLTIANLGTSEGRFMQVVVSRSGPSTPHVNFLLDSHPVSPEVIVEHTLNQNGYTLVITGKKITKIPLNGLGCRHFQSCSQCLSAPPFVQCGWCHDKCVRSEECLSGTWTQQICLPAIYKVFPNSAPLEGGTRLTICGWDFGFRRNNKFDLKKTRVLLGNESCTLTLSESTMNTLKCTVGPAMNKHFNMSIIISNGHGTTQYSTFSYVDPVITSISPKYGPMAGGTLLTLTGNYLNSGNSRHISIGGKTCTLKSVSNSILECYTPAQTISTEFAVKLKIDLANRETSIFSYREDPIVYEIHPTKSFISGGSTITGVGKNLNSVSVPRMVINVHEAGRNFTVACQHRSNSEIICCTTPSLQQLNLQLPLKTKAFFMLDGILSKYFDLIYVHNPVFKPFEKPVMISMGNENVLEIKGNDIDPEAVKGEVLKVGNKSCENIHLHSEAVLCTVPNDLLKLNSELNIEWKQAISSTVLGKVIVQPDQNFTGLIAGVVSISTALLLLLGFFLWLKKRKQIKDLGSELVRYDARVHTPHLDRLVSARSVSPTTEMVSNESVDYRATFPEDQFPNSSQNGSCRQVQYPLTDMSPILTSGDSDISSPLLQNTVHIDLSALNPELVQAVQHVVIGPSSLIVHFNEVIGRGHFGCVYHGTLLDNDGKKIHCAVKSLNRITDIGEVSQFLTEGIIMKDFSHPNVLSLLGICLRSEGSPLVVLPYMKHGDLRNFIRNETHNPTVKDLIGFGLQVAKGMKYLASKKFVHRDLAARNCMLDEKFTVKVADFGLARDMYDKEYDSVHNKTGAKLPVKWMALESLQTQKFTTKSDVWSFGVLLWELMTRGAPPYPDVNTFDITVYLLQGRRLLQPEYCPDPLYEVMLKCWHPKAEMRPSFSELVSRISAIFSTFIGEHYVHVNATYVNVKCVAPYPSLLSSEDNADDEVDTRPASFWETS
T11 sequence (Q86Y07 whole entry): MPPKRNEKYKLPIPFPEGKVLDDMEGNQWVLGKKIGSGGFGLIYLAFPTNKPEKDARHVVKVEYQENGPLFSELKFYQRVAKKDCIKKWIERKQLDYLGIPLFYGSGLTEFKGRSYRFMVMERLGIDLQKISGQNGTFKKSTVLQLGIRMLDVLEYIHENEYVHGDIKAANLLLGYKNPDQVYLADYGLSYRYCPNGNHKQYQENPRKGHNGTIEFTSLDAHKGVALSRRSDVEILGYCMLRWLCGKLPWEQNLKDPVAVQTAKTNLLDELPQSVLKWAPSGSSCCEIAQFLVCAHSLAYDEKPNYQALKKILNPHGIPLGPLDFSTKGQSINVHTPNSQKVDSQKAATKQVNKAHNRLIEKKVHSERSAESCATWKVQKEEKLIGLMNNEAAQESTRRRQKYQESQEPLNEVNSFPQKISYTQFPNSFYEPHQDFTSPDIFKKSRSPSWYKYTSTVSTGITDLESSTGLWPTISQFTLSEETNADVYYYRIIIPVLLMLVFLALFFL

Turning to `CCc1ccc2c(c1)C1(NN=C(c3cccc4ccccc34)S1)C(=O)N2` (centres unmarked) [OGM1, 5-ethyl-5′-naphthalen-1-ylspiro[1H-indole-3,2′-3H-1,3,4-thiadiazole]-2-one], the remaining binding at 10 µM at DCAMKL1 is 72%; on CDK7, 64%; at MAK, 90%; at ADCK3, 100%; at MET(Y1235D), 100%; at CLK2 it was 61%. In addition, the remaining binding at 10 µM turned out to be 100% at AXL; 100% on SRPK3; 93% on VRK2; 100% on EGFR(L861Q); 100% on CSNK1D; 84% at ERBB3. Besides, the remaining binding at 10 µM is 58% at MAST1; 100% at AMPK-alpha1; 98% at PRKX; 100% at CTK; 71% on KIT(V559D); 100% at LYN. The Antagonism on C3aR (10 uM) was 5.4; on P2Y11 (10 uM), −8.2; at ADRA2A (10 uM), −5.1; on 5-HT1A (10 uM) it was −7.5; on M5 (10 uM), 3.4; on 5-HT6 (10 uM), −4.4. The Agonism at C3aR (12.5 uM) is on record as 0.2; on P2Y11 (12.5 uM), −0.1; at ADRA2A (12.5 uM) it was 0.1; at 5-HT1A (12.5 uM), −0.8; on M5 (12.5 uM) it was −0.6; at 5-HT6 (12.5 uM), −0.7.
As to `CCc1ccc2c(c1)C1(NN=C(c3ccccc3)S1)C(=O)N2` (centres unmarked) [OGM2], in the assay with PDX 08-387 cells, the “coefficient of drug interaction (CDI)” value is < 0.7. In addition, the clonogenicity result in the assay on U87 was “reduces clonogenicity of U87 glioblastoma cells”.

Source of the values: patent publication US20240327364A1, “THERAPEUTIC TARGETING OF GPR68 TO INDUCE FERROPTOSIS” (University Of Maryland, Baltimore, priority 2023, published 2024).
